Experimental data taken from patent US7067500B2, “Betaines as adjuvants to susceptibility testing and antimicrobial therapy” (priority 1997, dated 2006).
Entries after “also recorded” stand apart in the source; their conditions may differ. Structures can show the parent of a compound that is named as a salt.

System: M. tuberculosis isolates (Table 8)
Experiment: MTB isolates vs. antibiotic screen in the presence and absence of CB-18
Conditions: CB-18 17 μg/ml

In the case of `CCCCCCCCCCCCCCCCCC[N+](C)(C)CCCC(=O)[O-]` [CB-18, N-(3-carboxypropyl)-N,N-dimethyl-1-octadecanaminium, inner salt], the “CB-18 induced sensitivity to antibiotics tested” value (from here on “CB-18 induced sensitivity”) (040-TBR) was “affected by CB-18 to some degree; also recorded: Minor CB-18 induced sensitivity to most antibiotics”, the “effect of CB-18 on cax sensitivity (degree of exacerbation)” value (040-TBR, P/cax) was “significantly affected by the presence of CB-18; also recorded: tested, however, cax sensitivity significantly” and the “CB-18 induced sensitivity” value (52-96-BOL) was “affected by CB-18 to some degree; also recorded: Minor CB-18 induced sensitivity to most antibiotics”. For the same compound, the “effect of CB-18 on cax sensitivity (degree of exacerbation)” value (52-96-BOL, P/cax) was “significantly affected by the presence of CB-18; also recorded: tested, however, cax sensitivity significantly”, the “CB-18 induced sensitivity” value (57-96-BOL (MDR)) was “exacerbated in the presence of CB-18; also recorded: moderate CB-18 induced sensitivity to most” and the “effect of CB-18 on cax sensitivity” value (061-TBR, P/cax) was “exacerbated by CB-18. Strain is INH resistant”. The “CB-18 induced sensitivity” value (512-JHH) was “Minor CB-18 induced sensitivity to most antibiotics”, the “CB-18 induced sensitivity” value (535-BAL) was “unaffected by CB-18 at this concentration” and the “effect of CB-18 on cax sensitivity” value (535-BAL, P/cax) was “cax sensitivity was independent of CB-18”. The “CB-18 induced sensitivity” value (538-JHH) was “Minor CB-18 induced sensitivity to most antibiotics”, the “CB-18 induced sensitivity” value (571-BAL) was “remarkable induction of susceptibility for all drugs tested; also recorded: Dramatic CB-18 induced sensitivity” and the “CB-18 induced sensitivity” value (573-BAL) was “remarkable induction of susceptibility for all drugs tested; also recorded: Dramatic CB-18 induced sensitivity”. For the same compound, the “effect of CB-18 on cax sensitivity” value (896-BAL, P/cax) was “slightly exacerbated by CB-18. Strain is multi”, the “effect of CB-18 on cax sensitivity” value (ATCC 27294, P/cax (ceftriaxone 8 μg/ml)) was “minor delays; also recorded: exacerbated by CB-18” and the “CB-18 induced sensitivity” value (ATCC 27294, PANTA, P/caz, P/cfp, P/cax, P/cft) was “little or no difference; also recorded: Minimal, if any, CB-18 induced sensitivity to”.
